Assay [1] concerns the target T1, High affinity choline transporter 1 (Homo sapiens, UniProt Q9GZV3).
T1 sequence (Q9GZV3 whole entry): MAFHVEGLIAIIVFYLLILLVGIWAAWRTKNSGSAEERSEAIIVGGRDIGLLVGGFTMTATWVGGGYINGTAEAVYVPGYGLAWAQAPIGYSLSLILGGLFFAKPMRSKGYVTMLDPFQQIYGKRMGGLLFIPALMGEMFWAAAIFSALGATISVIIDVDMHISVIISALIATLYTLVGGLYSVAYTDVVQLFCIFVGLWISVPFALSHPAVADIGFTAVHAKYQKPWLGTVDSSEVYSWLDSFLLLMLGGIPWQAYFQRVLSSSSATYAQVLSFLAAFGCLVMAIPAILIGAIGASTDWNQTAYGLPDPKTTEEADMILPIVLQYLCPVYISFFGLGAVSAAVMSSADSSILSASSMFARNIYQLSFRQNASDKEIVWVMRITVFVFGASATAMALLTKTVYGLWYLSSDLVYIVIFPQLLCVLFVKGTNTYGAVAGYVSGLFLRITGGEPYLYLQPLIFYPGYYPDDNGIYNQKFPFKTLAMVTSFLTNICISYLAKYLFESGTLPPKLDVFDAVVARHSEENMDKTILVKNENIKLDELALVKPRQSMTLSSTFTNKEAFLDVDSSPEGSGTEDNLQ
Description: human choline transporter potentiators, potency – cell-based, 10-point CRC, membrane potential dye, dose response (AID 602376). The class given is functional.

For assay [2], the target named is T2, Apoptotic protease-activating factor 1 (Homo sapiens, UniProt O14727).
T2 sequence (O14727 whole entry): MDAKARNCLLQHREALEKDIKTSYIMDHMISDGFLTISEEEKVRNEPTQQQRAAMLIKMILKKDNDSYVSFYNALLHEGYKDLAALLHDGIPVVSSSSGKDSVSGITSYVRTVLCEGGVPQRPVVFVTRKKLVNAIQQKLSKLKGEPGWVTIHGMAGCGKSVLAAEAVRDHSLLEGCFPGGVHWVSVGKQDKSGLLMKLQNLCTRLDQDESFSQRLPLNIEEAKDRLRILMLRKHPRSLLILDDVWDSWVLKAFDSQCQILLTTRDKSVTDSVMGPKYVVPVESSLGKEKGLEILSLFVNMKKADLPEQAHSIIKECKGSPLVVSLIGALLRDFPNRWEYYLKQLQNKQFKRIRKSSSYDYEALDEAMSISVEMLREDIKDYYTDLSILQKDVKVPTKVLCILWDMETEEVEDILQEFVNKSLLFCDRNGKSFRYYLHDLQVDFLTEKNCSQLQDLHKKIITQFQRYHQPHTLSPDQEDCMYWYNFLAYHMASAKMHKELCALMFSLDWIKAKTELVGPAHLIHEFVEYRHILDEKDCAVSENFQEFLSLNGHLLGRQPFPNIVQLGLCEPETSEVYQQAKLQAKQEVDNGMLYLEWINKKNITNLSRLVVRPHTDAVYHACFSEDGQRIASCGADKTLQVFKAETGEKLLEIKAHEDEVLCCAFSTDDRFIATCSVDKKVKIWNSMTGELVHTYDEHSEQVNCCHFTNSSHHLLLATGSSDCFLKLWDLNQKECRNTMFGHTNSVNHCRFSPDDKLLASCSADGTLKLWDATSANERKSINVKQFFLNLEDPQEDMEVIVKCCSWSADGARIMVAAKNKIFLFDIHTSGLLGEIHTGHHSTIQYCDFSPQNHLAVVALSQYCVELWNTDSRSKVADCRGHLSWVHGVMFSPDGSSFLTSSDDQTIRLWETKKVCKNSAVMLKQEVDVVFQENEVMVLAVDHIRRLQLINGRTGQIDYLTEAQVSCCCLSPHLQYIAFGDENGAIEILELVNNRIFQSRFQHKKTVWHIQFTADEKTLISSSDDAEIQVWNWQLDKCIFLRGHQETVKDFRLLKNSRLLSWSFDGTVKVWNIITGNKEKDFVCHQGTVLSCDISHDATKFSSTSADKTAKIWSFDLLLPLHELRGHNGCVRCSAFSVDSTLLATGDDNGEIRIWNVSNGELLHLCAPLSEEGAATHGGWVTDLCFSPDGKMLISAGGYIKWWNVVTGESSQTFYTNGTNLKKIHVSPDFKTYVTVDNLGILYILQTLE
The assay can be described thus: SAR analysis of small molecule inhibitors of Apaf-1 in a Fluorescent assay. The class given is functional. Conditions: read-out: IC50_Mean.

Assay [3] is described as follows: viability loss in Vero cells – cell-based, purified and synthesized samples, set 8, cytotoxicity control for M. tuberculosis inhibitor project (AID 602431). The class given is functional. Conditions: Mycobacterium tuberculosis.
Assay [4] in a line: HepG2 cell cytotoxicity, cytotoxicity control, set 6 (AID 602432). Conditions: Mycobacterium tuberculosis. The class given is functional.
Assay [5] can be described thus: THP-1 cell cytotoxicity, cytotoxicity control, set 6 (AID 602433). The class given is functional. Conditions: Mycobacterium tuberculosis.
The target in assay [6] is High affinity nerve growth factor receptor (Homo sapiens, UniProt P04629). The class given is functional.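 Further: NTRK1 tested as one member of a kinome-wide profiling panel.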
For the next assay, the target named is Aurora kinase A (Homo sapiens, UniProt O14965). The class given is functional.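 Further: value from the Navigating the Kinome kinase panel profiling, panel entry STK6.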
Assay [7] concerns the target Vascular endothelial growth factor receptor 2 (Homo sapiens, UniProt P35968). The class given is functional.
For the next assay, the target named is Aurora kinase B (Homo sapiens, UniProt Q96GD4). The class given is functional.
Assay [8] addresses Cyclin-dependent kinase 5 (Homo sapiens, UniProt Q00535). The class given is functional.
Assay [9] deals with Serine/threonine-protein kinase pim-1 (Homo sapiens, UniProt P11309). The class given is functional.
Assay [10] concerns the target Mitogen-activated protein kinase kinase kinase kinase 5 (Homo sapiens, UniProt Q9Y4K4). The class given is functional.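 Further: measured as one member of a kinome-spanning kinase panel.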
In assay [11] the target is Dual specificity tyrosine-phosphorylation-regulated kinase 1A (Homo sapiens, UniProt Q13627). The class given is functional.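 Further: measured against DYRK1A as one member of a broad kinome profiling panel.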
Assay [12] addresses MAP kinase-interacting serine/threonine-protein kinase 2 (Homo sapiens, UniProt Q9HBH9). The class given is functional.
The target in assay [13] is Serine/threonine-protein kinase Nek2 (Homo sapiens, UniProt P51955). The class given is functional.
Assay [14] addresses Rho-associated protein kinase 1 (Homo sapiens, UniProt Q13464). The class given is functional.
Assay [15] concerns the target Serine/threonine-protein kinase MRCK alpha (Homo sapiens, UniProt Q5VT25). The class given is functional.
The target in assay [16] is STE20-like serine/threonine-protein kinase (Homo sapiens, UniProt Q9H2G2). The class given is functional.
The next assay has as its target LIM domain kinase 1 (Homo sapiens, UniProt P53667). The assay can be described thus: Navigating the Kinome. Panel member name: LIMK1. The class given is functional.
Assay [17] deals with MAP kinase-activated protein kinase 3 (Homo sapiens, UniProt Q16644). The class given is functional.
For assay [18], the target named is RAC-gamma serine/threonine-protein kinase (Homo sapiens, UniProt Q9Y243). The class given is functional.
The target in assay [19] is Serine/threonine-protein kinase BRSK1 (Homo sapiens, UniProt Q8TDC3). The class given is functional.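 Further: measured within a kinome-wide kinase panel, with the target listed as KIAA1811.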
Assay [20] concerns the target Serine/threonine-protein kinase pim-3 (Homo sapiens, UniProt Q86V86). The class given is functional.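 Further: value obtained as one member of a broad kinase panel profiling effort.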
Assay [21] deals with Interleukin-1 receptor-associated kinase 4 (Homo sapiens, UniProt Q9NWZ3). The class given is functional.
In assay [22] the target is Serine/threonine-protein kinase PAK 1 (Homo sapiens, UniProt Q13153). The class given is functional.
For assay [23], the target named is Serine/threonine-protein kinase DCLK1 (Homo sapiens, UniProt O15075). The class given is functional.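 Further: affinity for DCLK1 (listed as DCAMKL1) measured as one member of a kinome-wide kinase profiling panel.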
In assay [24] the target is Mitogen-activated protein kinase kinase kinase kinase 4 (Homo sapiens, UniProt O95819). The class given is functional.
Assay [25] concerns the target Serine/threonine-protein kinase TAO1 (Homo sapiens, UniProt Q7L7X3). The class given is functional.
Assay [26] addresses Serine/threonine-protein kinase D3 (Homo sapiens, UniProt O94806). The class given is functional.
The target of assay [27] is Testis-specific serine/threonine-protein kinase 2 (Homo sapiens, UniProt Q96PF2). The class given is functional.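 Further: part of the Navigating the Kinome panel, target entry STK22B.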
Assay [28] in a line: rise of 4N DNA cells, HeLa – IC50, dose response (AID 1117351). The class given is functional, cell-based.
Assay [29] addresses Cell division cycle 7-related protein kinase (Homo sapiens, UniProt O00311). The class given is functional.
A short description of assay [30]: rise of 2N DNA cells, HeLa – IC50, dose response (AID 1117349). The class given is functional, cell-based.
In assay [31] the target is Dual specificity tyrosine-phosphorylation-regulated kinase 4 (Homo sapiens, UniProt Q9NR20). The class given is functional.
In assay [32] the target is G protein-coupled receptor kinase 5 (Homo sapiens, UniProt P34947). The assay can be described thus: Navigating the Kinome. Panel member name: GPRK5. The class given is functional.
For assay [33], the target named is Dual specificity tyrosine-phosphorylation-regulated kinase 3 (Homo sapiens, UniProt O43781). The class given is functional.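 Further: measured as one member of a broad kinase panel.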
Assay [34] addresses Protein kinase C gamma type (Homo sapiens, UniProt P05129). The class given is functional.
Assay [35] concerns the target Lymphokine-activated killer T-cell-originated protein kinase (Homo sapiens, UniProt Q96KB5). The class given is functional.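 Further: value comes from a kinase panel screen in which TOPK was one of the panel members.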
The target of assay [36] is Eukaryotic elongation factor 2 kinase (Homo sapiens, UniProt O00418). The class given is functional.

The source made the active and inactive calls. A value given as a limit tells only on which side of the number the result lay.

As a reminder, the EC50 is the concentration needed to bring the measured effect to its halfway point. Broadly, the CC50 is the concentration that lowers cell viability or growth by half. The Ki is the equilibrium dissociation constant of an inhibitor or competing ligand from its target.

MAP kinase-activated protein kinase 3, sequence (Q16644 whole entry): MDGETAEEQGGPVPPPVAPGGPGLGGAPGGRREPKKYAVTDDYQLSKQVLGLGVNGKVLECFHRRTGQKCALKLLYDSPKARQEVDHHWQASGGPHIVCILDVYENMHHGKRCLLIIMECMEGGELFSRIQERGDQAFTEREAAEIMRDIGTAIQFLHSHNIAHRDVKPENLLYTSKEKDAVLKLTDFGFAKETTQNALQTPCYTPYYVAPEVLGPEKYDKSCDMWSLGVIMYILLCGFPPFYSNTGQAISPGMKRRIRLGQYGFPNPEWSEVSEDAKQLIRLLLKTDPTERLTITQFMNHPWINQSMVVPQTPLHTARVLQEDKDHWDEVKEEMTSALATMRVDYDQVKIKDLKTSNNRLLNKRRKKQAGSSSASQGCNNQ
RAC-gamma serine/threonine-protein kinase, sequence (Q9Y243 whole entry): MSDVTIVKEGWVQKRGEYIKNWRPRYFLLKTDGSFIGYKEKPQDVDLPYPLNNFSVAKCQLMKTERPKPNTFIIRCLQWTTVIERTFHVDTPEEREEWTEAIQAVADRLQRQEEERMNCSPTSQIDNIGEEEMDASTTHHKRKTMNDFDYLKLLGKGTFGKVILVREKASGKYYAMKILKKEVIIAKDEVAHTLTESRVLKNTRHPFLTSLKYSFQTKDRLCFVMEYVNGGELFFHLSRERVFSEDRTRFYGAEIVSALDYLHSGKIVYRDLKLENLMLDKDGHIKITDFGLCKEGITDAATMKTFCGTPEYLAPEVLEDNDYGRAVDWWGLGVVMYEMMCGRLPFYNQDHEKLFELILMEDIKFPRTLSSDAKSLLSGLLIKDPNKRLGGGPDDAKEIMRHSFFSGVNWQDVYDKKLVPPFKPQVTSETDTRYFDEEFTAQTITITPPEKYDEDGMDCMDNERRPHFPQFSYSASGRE
Cell division cycle 7-related protein kinase, sequence (O00311 whole entry): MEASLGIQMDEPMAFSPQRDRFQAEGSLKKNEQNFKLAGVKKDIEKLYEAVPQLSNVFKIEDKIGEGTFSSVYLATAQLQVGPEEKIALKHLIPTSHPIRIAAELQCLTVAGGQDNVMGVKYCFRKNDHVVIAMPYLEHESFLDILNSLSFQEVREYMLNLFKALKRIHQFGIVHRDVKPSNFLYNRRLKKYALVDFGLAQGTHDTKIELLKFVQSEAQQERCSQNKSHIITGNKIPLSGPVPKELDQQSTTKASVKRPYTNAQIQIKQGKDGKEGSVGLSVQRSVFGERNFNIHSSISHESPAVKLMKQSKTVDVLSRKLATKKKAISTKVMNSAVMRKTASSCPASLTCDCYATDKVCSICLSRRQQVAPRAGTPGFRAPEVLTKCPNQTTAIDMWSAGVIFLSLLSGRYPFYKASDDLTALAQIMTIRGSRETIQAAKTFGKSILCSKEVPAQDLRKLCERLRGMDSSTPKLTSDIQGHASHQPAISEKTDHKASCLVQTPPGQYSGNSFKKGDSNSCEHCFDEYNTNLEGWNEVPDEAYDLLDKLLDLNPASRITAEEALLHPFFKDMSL
Mitogen-activated protein kinase kinase kinase kinase 5, sequence (Q9Y4K4 whole entry): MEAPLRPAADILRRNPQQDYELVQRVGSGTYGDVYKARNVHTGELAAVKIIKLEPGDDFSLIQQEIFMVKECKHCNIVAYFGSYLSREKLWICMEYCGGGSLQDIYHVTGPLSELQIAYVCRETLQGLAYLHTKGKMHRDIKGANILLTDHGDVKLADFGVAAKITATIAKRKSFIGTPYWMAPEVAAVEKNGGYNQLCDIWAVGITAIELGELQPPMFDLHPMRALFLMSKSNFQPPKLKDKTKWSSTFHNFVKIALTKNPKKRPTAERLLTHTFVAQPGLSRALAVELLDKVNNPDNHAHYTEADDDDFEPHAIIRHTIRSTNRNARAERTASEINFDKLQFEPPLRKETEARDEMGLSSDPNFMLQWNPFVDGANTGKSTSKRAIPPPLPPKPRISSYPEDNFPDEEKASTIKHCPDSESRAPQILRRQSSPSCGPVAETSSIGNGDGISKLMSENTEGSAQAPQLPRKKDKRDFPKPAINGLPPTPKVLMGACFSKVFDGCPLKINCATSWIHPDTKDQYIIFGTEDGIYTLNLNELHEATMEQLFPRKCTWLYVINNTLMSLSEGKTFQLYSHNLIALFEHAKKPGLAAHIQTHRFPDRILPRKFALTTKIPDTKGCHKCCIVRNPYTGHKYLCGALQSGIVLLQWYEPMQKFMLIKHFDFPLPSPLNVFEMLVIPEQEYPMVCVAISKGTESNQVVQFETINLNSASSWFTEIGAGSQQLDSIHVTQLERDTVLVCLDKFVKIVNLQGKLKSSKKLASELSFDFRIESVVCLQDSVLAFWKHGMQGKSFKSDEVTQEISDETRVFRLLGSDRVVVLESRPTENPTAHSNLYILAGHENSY
Lymphokine-activated killer T-cell-originated protein kinase, sequence (Q96KB5 whole entry): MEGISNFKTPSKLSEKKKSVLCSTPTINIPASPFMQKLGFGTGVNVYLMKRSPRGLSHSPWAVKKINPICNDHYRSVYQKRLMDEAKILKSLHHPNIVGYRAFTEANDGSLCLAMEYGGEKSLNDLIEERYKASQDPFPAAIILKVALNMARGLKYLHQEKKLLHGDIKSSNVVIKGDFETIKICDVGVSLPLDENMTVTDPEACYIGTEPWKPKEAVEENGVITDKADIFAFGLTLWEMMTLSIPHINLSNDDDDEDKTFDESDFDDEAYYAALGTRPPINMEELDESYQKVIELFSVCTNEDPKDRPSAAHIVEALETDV
High affinity nerve growth factor receptor, sequence (P04629 whole entry): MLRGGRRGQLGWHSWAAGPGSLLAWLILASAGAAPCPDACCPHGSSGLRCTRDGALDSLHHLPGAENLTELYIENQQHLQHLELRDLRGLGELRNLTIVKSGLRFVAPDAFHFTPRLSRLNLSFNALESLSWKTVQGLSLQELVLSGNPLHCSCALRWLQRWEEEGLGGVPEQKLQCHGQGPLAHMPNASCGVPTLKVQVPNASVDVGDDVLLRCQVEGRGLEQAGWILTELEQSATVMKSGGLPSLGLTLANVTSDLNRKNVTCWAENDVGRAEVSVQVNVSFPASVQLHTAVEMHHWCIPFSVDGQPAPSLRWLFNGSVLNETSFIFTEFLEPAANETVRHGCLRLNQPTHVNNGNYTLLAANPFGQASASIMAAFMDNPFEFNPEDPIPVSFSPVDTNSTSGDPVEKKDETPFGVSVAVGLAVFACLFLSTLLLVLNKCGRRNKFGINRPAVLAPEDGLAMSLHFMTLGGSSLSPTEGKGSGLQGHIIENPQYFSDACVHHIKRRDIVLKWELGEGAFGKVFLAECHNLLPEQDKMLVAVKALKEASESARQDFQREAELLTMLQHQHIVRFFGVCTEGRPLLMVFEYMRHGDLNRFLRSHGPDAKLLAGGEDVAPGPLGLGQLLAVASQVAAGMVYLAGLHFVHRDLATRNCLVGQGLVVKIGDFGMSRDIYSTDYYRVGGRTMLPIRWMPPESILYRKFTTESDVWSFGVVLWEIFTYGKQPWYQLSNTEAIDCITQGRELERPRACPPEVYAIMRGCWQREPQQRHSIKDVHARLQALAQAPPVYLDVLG
Serine/threonine-protein kinase pim-1, sequence (P11309 whole entry): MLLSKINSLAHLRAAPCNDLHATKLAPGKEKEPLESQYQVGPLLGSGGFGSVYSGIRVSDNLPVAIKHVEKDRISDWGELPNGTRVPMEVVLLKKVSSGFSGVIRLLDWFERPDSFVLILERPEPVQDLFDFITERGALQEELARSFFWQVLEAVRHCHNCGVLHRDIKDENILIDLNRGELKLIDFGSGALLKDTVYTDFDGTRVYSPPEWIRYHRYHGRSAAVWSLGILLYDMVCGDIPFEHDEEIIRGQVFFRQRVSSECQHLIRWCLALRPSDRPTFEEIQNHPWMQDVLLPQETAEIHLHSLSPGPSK
Serine/threonine-protein kinase BRSK1, sequence (Q8TDC3 whole entry): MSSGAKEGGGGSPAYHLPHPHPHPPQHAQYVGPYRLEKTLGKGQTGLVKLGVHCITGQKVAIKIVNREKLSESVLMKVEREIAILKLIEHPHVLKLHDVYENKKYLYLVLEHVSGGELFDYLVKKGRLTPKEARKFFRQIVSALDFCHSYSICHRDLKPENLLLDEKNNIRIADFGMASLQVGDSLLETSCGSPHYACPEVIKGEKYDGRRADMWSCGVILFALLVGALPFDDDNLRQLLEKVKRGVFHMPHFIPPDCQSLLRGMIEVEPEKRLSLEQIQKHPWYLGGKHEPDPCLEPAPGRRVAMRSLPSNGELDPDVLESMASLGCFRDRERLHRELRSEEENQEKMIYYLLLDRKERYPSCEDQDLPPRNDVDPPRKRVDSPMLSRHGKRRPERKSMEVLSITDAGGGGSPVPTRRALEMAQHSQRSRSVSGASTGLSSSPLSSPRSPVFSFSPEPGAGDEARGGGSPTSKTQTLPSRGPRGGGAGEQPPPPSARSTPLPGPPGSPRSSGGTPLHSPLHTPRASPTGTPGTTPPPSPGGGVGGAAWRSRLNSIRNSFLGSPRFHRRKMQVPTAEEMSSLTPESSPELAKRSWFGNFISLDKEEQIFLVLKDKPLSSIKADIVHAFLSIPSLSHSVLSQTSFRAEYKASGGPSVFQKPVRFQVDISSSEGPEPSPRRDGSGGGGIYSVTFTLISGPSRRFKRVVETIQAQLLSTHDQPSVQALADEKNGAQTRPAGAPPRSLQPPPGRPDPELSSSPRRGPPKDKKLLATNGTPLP

In the case of `CC(C)C(=O)N1CCN(c2ccccc2NC(=O)c2ccc(C#N)cc2F)CC1`, the EC50 in [1] is 12.9 µM (active).

As for `Cc1ccc(-c2nc3cc(NC(=O)c4cccs4)ccc3[nH]2)o1`, the IC50 in [2] is > 100 µM (inactive).

As for `COc1ccc(N2CCN(C(=O)c3ccc(CNC(=O)NCc4ccc(Cl)cc4)cc3)CC2)cc1`, the 50% cytotoxic concentration (CC50) in assay [3] is 29.4 µM (active); in assay [4] it was > 50 µM (active); in [5], > 100 µM (inconclusive).

With `CCS(=O)(=O)c1ccc(-c2ccc(-c3n[nH]c4c3Cc3cc(O)c(OC)cc3-4)cc2)cc1`, the Ki is 3.98 µM (active) in [6], 0.794 µM (active) on Aurora kinase A, 1.26 µM (active) in assay [7] and 0.000794 µM (active) at Aurora kinase B.

On to `COc1ccc(C=C2SC(=Nc3ccccc3)NC2=O)cc1OC`, for which the Ki was > 10 µM (inactive) in assay [8]; 1.58 µM (active) in assay [9]; 6.31 µM (active) in [10]; 6.31 µM (active) in assay [11]; 6.31 µM (active) in [12]; > 10 µM (inactive) in assay [13]. Also, the Ki (in [14]; in assay [15]; in assay [16]; at LIM domain kinase 1; in assay [17]; in assay [18]) was > 10 µM (inactive) in each case. The Ki in assay [19] was > 10 µM (inactive); in assay [20] it was 1 µM (active); in assay [21] it was > 10 µM (inactive); in [22], > 10 µM (inactive); in [23] it was > 10 µM (inactive); in assay [24], 3.98 µM (active). Also, the Ki in assay [25] and in assay [26] was > 10 µM (inactive) in each case.

For the compound `Cc1nc(Nc2ncc(C(=O)Nc3c(C)cccc3Cl)s2)cc(N2CCN(CCO)CC2)n1` [DASATINIB], the Ki is > 1.58 µM (inactive) in [27]; > 1.26 µM (inactive) in [29]; > 7.94 µM (inactive) in [31]; > 3.98 µM (inactive) in assay [32]; 1.26 µM (active) in [33]; > 7.94 µM (inactive) in assay [34]. The Ki is > 10 µM (inactive) in assay [17], > 10 µM (inactive) in assay [35] and > 3.98 µM (inactive) in [36]. Also, the IC50 in [28] and in assay [30] was > 10 µM (inactive) in each case.

These data come from ChEMBL document CHEMBL1201862, “PubChem BioAssay data set” (2004).
